Results reported in article PMC9403976, “Elucidating the path to Plasmodium prolyl-tRNA synthetase inhibitors that overcome halofuginone resistance” (Nature Communications, 2022).
“And” between values parts separate entries of the source, which are not always exact repeats. Equal entries are not always repeated. Where two headings read alike, the source gives them in different places.

How the values were obtained:
P. falciparum Dd2-2D4 = test: P. falciparum asexual blood stage (ABS) growth assay, SYBR Green, 72 h, wild-type parasites; type: cell-based, Plasmodium falciparum; conditions: Plasmodium falciparum
[1] = tested on: halofuginone-induced P. falciparum (elevated proline homeostasis); test: P. falciparum ABS growth assay, SYBR Green, 72 h, halofuginone-induced parasites; type: cell-based, Plasmodium falciparum; conditions: Plasmodium falciparum, DD2; halofuginone-induced ABS parasites, 72 h; read-out: Dd2 (EC50 [nM]) Halofuginone-induced
Text: (§1) Parasites were maintained under standard culture conditions as described previously[56],[57]. […] The P. falciparum Dd2 cell lines used in this study (Dd2-2D4, halofuginone-induced, and HFGR-I) have previously undergone whole genome sequencing in our labs. They were also routinely assayed and EC50 values determined using the ABS growth assay (see below) with a panel of standard antimalarial compounds, including halofuginone which has differential activity for the three Dd2 lines used in these experiments. Data were cross-referenced for consistency with literature reported values and data previously acquired in the lab.
(§2) This assay was performed as previously described. In short, P. falciparum erythrocytic-stage parasites at 1% parasitemia and 1% hematocrit in RPMI + 0.5% Albumax were seeded at 40 μL/well in 384-well plates with test compounds in triplicate, dose-response format with 10 μM dihydroartemisinin as a kill-control and blank (no compound) wells as a growth-control. […] After 72 h, growth was quantified by measuring fluorescence (Molecular Devices SpectraMax iD5) following SYBR Green 1 staining. Data were analyzed in Excel and plotted in PRISM (V. 8.4.3–9.1.0, GraphPad).

[2] = tested on: HFGR-I P. falciparum (elevated proline homeostasis and PfcProRS^L482H); test: P. falciparum ABS growth assay, SYBR Green, 72 h, HFGR-I parasites; type: cell-based, Plasmodium falciparum; conditions: Plasmodium falciparum, DD2; HFGR-I ABS parasites, 72 h; read-out: Dd2 (EC50 [nM]) HFGR-I
Text: as §1, §2

PfcProRS = molecular target: T1, PfcProRS (Plasmodium falciparum, UniProt Q8I5R7); type: binding; conditions: for Normalized response, dose-response replicates (SI Fig 14): replicates 1-3, listed as Glyburide (28)
T1 construct: made in house; host or cells: E. coli SoluBL-21

HsProRS = HsProRS (Homo sapiens, UniProt P07814); test: TR-FRET ligand displacement assay with tracer MAT379 (CoraFluor-1-Halo and anti-His6 antibody formats); type: binding; set-up: made in house; host or cells: E. coli SoluBL-21; conditions: for normalized TR-FRET signal (dose-response replicates): SI Fig 15, listed as Glyburide (28)
Sequence of HsProRS (P07814 996-1512): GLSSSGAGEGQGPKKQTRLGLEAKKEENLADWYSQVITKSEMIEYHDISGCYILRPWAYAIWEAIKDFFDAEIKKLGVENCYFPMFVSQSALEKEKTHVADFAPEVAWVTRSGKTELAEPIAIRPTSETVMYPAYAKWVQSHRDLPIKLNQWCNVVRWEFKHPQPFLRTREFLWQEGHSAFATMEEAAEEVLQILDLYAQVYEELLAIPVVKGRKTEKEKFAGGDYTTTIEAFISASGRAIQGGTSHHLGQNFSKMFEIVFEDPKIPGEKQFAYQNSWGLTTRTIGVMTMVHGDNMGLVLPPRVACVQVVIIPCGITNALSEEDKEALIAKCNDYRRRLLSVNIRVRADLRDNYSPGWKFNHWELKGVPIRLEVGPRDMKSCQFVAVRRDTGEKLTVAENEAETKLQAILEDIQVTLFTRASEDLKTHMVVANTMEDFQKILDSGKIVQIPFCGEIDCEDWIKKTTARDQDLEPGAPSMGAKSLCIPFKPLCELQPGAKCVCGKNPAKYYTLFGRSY

T1 sequence (Q8I5R7 249-746): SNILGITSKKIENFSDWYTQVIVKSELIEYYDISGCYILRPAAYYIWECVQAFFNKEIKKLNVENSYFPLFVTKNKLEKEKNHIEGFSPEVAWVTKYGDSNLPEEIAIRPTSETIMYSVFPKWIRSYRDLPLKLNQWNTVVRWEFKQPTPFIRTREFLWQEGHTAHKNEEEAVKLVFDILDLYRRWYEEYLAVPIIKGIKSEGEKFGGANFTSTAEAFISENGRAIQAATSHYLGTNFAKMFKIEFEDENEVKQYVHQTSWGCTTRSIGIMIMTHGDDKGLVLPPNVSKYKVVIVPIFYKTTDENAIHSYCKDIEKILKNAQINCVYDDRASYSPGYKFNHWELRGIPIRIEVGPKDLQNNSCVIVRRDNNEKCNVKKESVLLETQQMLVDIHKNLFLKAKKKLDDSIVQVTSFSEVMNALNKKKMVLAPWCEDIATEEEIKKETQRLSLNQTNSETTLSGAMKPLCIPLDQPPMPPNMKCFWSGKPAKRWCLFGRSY

## COc1ccc(Cl)cc1C(=O)NCCc1ccc(S(=O)(=O)NC(=O)NC2CCCCC2)cc1 [Glyburide, reference compound]
P. falciparum Dd2-2D4; DD2, SI Fig 16b, values on -log scale, read-out: ABS - Dd2-2D4 (converted)
  EC50: 75700 nM
P. falciparum Dd2-2D4; wild-type Dd2-2D4 ABS parasites, 72 h, read-out: Dd2 (EC50 [nM]) wt
  EC50: 75600 nM
[1]
  EC50: 73600 nM
[2]
  EC50: 69600 nM
PfcProRS
  binding mode with respect to substrates (ATP, proline): ATP- and proline-competitive
  selectivity for PfcProRS over HsProRS: > 30 fold
PfcProRS; Log[inhibitor] (M) -4.000
  Normalized response, dose-response replicates (SI Fig 14): 9.02E-01 and 9.90E-01 and 8.86E-01
PfcProRS; Log[inhibitor] (M) -4.301
  Normalized response, dose-response replicates (SI Fig 14): 1.05E+00 and 1.04E+00 and 1.16E+00
PfcProRS; Log[inhibitor] (M) -4.601
  Normalized response, dose-response replicates (SI Fig 14): 1.10E+00 and 1.11E+00 and 1.09E+00
PfcProRS; Log[inhibitor] (M) -4.904
  Normalized response, dose-response replicates (SI Fig 14): 1.18E+00 and 1.08E+00 and 1.07E+00
PfcProRS; Log[inhibitor] (M) -5.208
  Normalized response, dose-response replicates (SI Fig 14): 9.30E-01 and 1.21E+00 and 1.10E+00
PfcProRS; Log[inhibitor] (M) -5.509
  Normalized response, dose-response replicates (SI Fig 14): 1.06E+00 and 9.98E-01 and 1.05E+00
PfcProRS; Log[inhibitor] (M) -5.796
  Normalized response, dose-response replicates (SI Fig 14): 9.95E-01 and 9.65E-01 and 1.02E+00
PfcProRS; Log[inhibitor] (M) -6.108
  Normalized response, dose-response replicates (SI Fig 14): 9.29E-01 and 8.37E-01 and 1.06E+00
PfcProRS; Log[inhibitor] (M) -6.409
  Normalized response, dose-response replicates (SI Fig 14): 9.49E-01 and 9.10E-01 and 8.70E-01
PfcProRS; Log[inhibitor] (M) -6.710
  Normalized response, dose-response replicates (SI Fig 14): 9.85E-01 and 9.81E-01 and 9.34E-01
PfcProRS; Log[inhibitor] (M) -7.000
  Normalized response, dose-response replicates (SI Fig 14): 1.05E+00 (2×) and 1.07E+00
PfcProRS; Log[inhibitor] (M) -7.301
  Normalized response, dose-response replicates (SI Fig 14): 1.02E+00 and 9.36E-01 and 1.04E+00
PfcProRS; Log[inhibitor] (M) -7.602
  Normalized response, dose-response replicates (SI Fig 14): 8.75E-01 and 9.05E-01 and 1.01E+00
PfcProRS; Log[inhibitor] (M) -8.000
  Normalized response, dose-response replicates (SI Fig 14): 1.03E+00 and 1.08E+00 and 9.17E-01
PfcProRS; Log[inhibitor] (M) -8.301
  Normalized response, dose-response replicates (SI Fig 14): 1.03E+00 and 8.92E-01 and 1.05E+00
HsProRS; + 100 μM proline, 100 μM
  HsProRS % signal at 100 μM, + 100 μM proline: 92.6%
HsProRS; HsProRS (KD [nM]) + ATP, 500 μM ATP, 250 nM MAT379
  Kd: 30900 nM
HsProRS; HsProRS (KD [nM]) + proline, 100 μM proline, 250 nM MAT379
  Kd: > 50000 nM
HsProRS; HsProRS (KD [nM]) −, absence of substrates, 250 nM MAT379
  Kd: 73900 nM
HsProRS; HsProRS KD + 100 μM proline, bound, + 100 μM proline, bound given in μM
  Kd: > 50900 nM
HsProRS; Log[inhibitor] (M) -3.99976
  normalized TR-FRET signal (dose-response replicates): 4.60E-01 and 4.45E-01 and 5.24E-01
HsProRS; Log[inhibitor] (M) -4.3009
  normalized TR-FRET signal (dose-response replicates): 6.36E-01 and 5.89E-01 and 6.44E-01
HsProRS; Log[inhibitor] (M) -4.60199
  normalized TR-FRET signal (dose-response replicates): 8.28E-01 and 7.19E-01 and 8.15E-01
HsProRS; Log[inhibitor] (M) -4.90248
  normalized TR-FRET signal (dose-response replicates): 9.22E-01 and 9.13E-01 and 9.32E-01
HsProRS; Log[inhibitor] (M) -5.20323
  normalized TR-FRET signal (dose-response replicates): 1.00E+00 and 9.33E-01 (2×)
HsProRS; Log[inhibitor] (M) -5.51347
  normalized TR-FRET signal (dose-response replicates): 9.75E-01 (2×) and 1.00E+00
HsProRS; Log[inhibitor] (M) -5.79595
  normalized TR-FRET signal (dose-response replicates): 7.95E-01 and 8.60E-01 and 9.98E-01
HsProRS; Log[inhibitor] (M) -6.10794
  normalized TR-FRET signal (dose-response replicates): 8.65E-01 and 8.44E-01 and 8.55E-01
HsProRS; Log[inhibitor] (M) -6.40526
  normalized TR-FRET signal (dose-response replicates): 9.62E-01 and 9.85E-01 and 1.00E+00
HsProRS; Log[inhibitor] (M) -6.7137
  normalized TR-FRET signal (dose-response replicates): 9.69E-01 and 9.06E-01 and 9.96E-01
HsProRS; Log[inhibitor] (M) -7
  normalized TR-FRET signal (dose-response replicates): 8.09E-01 and 8.06E-01 and 9.15E-01
HsProRS; Log[inhibitor] (M) -7.331
  normalized TR-FRET signal (dose-response replicates): 8.96E-01 and 8.92E-01 and 9.69E-01
HsProRS; Log[inhibitor] (M) -7.57403
  normalized TR-FRET signal (dose-response replicates): 9.06E-01 and 7.74E-01 and 8.73E-01
HsProRS; Log[inhibitor] (M) -7.87506
  normalized TR-FRET signal (dose-response replicates): 6.90E-01 and 8.76E-01 and 8.40E-01
HsProRS; Log[inhibitor] (M) -8.17609
  normalized TR-FRET signal (dose-response replicates): 9.01E-01 and 9.35E-01 and 9.12E-01
